pIC50: −log10 of the molar value. Marks after values point to notes of the source that are not given here.
Legend:
[1] = target: T1, GSK3α (Homo sapiens, UniProt P49840); test: GSK3α enzyme inhibition (Method 2), FRET Z-LYTE; assay type: biochemical
T1 construct: purchased Invitrogen
Method: (§1) The enzyme inhibitory activities of compounds disclosed herein are determined by FRET using synthetic peptides labelled with both donor and acceptor fluorophores (Z-LYTE, Invitrogen Ltd., Paisley, UK).
The inhibitory activities of compounds of the invention against the GSK 3α enzyme isoform (Invitrogen), are evaluated by determining the level of activation/phosphorylation of the target peptide. The GSK3-α protein (500 ng/mL, 2.5 μL) is mixed with the test compound (2.5 μL at either 4 μg/mL, 0.4 μg/mL, 0.04 μg/mL, or 0.004 μg/mL) for 2 hr at RT. The FRET peptide (8 μM, 2.5 μL), which is a phosphorylation target for GSK3α, and ATP (40 μM, 2.5 μL) are then added to the enzyme/compound mixture and the resulting mixture incubated for 1 hr. Development reagent (protease, 5 μL) is added for 1 hr prior to detection in a fluorescence microplate reader (Varioskan® Flash, ThermoFisher Scientific).
(§2) In all cases, the site-specific protease cleaves non-phosphorylated peptide only and eliminates the FRET signal. Phosphorylation levels of each reaction are calculated using the ratio of coumarin emission (donor) over fluorescein emission (acceptor), for which high ratios indicate high phosphorylation and low ratios indicate low phosphorylation levels.
This method follows the same steps as Method 1 above, but utilises a shorter period of mixing of the test compound (105 minutes instead of 2 hours) with the GSK3-α protein.

[2] = target: T2, Syk (Homo sapiens, UniProt P43405); test: Syk enzyme inhibition, FRET Z-LYTE; assay type: biochemical
T2 construct: purchased Invitrogen
Method: as §1
(§3) The inhibitory activities of compounds of the invention against c-Src and Syk enzymes (Invitrogen), are evaluated in a similar fashion to that described hereinabove. The relevant enzyme (3000 ng/mL or 2000 ng/mL respectively, 2.5 μL) is incubated with the test compound (either 4 μg/mL, 0.4 μg/mL, 0.04 μg/mL, or 0.004 μg/mL, 2.5 μL each) for 2 hr at RT. The FRET peptides (8 μM, 2.5 μL), and appropriate ATP solutions (2.5 μL, 800 μM for c-Src, and 60 μM ATP for Syk) are then added to the enzymes/compound mixtures and incubated for 1 hr. Development reagent (protease, 5 μL) is added for 1 hr prior to detection in a fluorescence microplate reader (Varioskan® Flash, ThermoFisher Scientific).
as §2

[3] = test system: PBMCs; test: LPS-induced IL-8 release in PBMC cells; assay type: cell-based; settings: Homo sapiens, LPS-stimulated PBMCs, read-out: IC50 Values for Inhibition of Cytokine Release PBMCs IL-8
Method: Peripheral blood mononuclear cells (PBMCs) from healthy subjects are separated from whole blood using a density gradient (Lymphoprep, Axis-Shield Healthcare). The PBMCs are seeded in 96 well plates and treated with compounds at the desired concentration for 2 hours before addition of 1 ng/mL LPS (Escherichia Coli 0111:B4 from Sigma Aldrich) for 24 hours under normal tissue culture conditions (37° C., 5% CO2). The supernatant is harvested for determination of IL-8 and TNFα concentrations by sandwich ELISA (Duo-set, R&D systems) and read on the fluorescence microplate reader (Varioskan® Flash, ThermoFisher Scientific).

[4] = target: T3, p38 MAPKα (Homo sapiens, UniProt Q16539); test: p38 MAPKα enzyme inhibition (Method 2), FRET Z-LYTE; assay type: biochemical
T3 construct: purchased Invitrogen
Method: as §1
The inhibitory activities of test compounds against the p38 MAPKα isoform (MAPK14: Invitrogen), are evaluated indirectly by determining the level of activation/phosphorylation of the down-stream molecule, MAPKAP-K2. The p38 MAPKα protein (80 ng/mL, 2.5 μL) is mixed with the test compound (2.5 μL of either 4 μg/mL, 0.4 μg/mL, 0.04 μg/mL or 0.004 μg/mL) for 2 hr at RT. […] The mixture is incubated for 1 hr at RT. Development reagent (protease, 5 μL) is added for 1 hr prior to detection in a fluorescence microplate reader (Varioskan® Flash, ThermoFisher Scientific).
This method follows the same steps as Method 1 above, but utilises a higher concentration of the p38 MAPKα protein (2.5 μL of 200 ng/mL protein instead of 2.5 μL of 80 ng/mL protein) for mixing with the test compound.
as §2

[5] = target: T4, c-Src (Homo sapiens, UniProt P12931); test: c-Src enzyme inhibition, FRET Z-LYTE; assay type: biochemical
T4 construct: purchased Invitrogen
Method: as §1, §3, §2

[6] = test system: PBMCs; test: IL-2 release in CD3/CD28 stimulated PBMC cells; assay type: cell-based; settings: Homo sapiens, read-out: IC50 Values for Inhibition of Cytokine Release PBMCs IL-2
Method: (§4) PBMCs from healthy subjects are separated from whole blood using a density gradient (Lymphoprep, Axis-Shield Healthcare). Cells are added to a 96 well plate pre-coated with a mixture of CD3/CD28 monoclonal antibodies (0.3 μg/mL eBioscience and 3 μg/mL BD Pharmingen respectively). Compound at the desired concentration is then added to the wells and the plate left for 3 days under normal tissue culture conditions. Supernatants are harvested and IL-2 and IFN gamma release determined by Sandwich ELISA (Duo-set, R&D System). The IC50 is determined from the dose response curve.

[7] = test system: PBMCs; test: IFN gamma release in CD3/CD28 stimulated PBMC cells; assay type: cell-based; settings: Homo sapiens, read-out: IC50 Values for Inhibition of Cytokine Release PBMCs IFNγ
Method: as §4

[8] = test system: Jurkat cells; test: Cell cytotoxicity assay (Jurkat cell viability); assay type: cell-based, human; settings: 24 hours
Method: 1×10^5 Jurkat cells (immortalised human T lymphocytes) are added to the appropriate number of wells of a 96 well plate in 100 μL of media (RPMI supplemented with 10% foetal bovine serum). 1 μL of DMSO control (final concentration 1.0% v/v) or test compound (final concentration 20, 5 or 1 μg/mL) is added to the wells and incubated at 37° C., 5% CO2. After 24 hours, the plate is centrifuged at 1200 rpm for 3 minutes and the supernatant discarded. Cells are then resuspended in 150 μL (final concentration 7.5 μg/mL) of propidium iodide (PI) in PBS and incubated at 37° C., 5% CO2 for 15 minutes. After 15 minutes, cells are analysed by flow cytometry (BD accuri) using the FL3 window. The % viability is calculated as the % of cells that are PI negative in the test wells normalised to the DMSO control.

[9] = Hydrolytic stability study; assay type: physicochemical; settings: DMSO/water (3:1); for % Parent Remaining, cumulative average from multiple experiments / % Parent Remaining: 1 mg/mL; for % Parent Remaining: experiment in which Example 2 was tested
Method: Chemical stability of compounds of the invention was assessed in a mixture of DMSO and water (3:1) at a test compound concentration of 1 mg/mL
General HPLC Procedure • Agilent, Waters X-Select C18, 2.5 μm, 4.6×30 mm column, 4 min method, 5-95% • MeCN/water (0.1% formic acid). • Flow rate 2.5 ml/min. • Column Oven Temperature 40° C. • Detection 254 nm.
Sample Preparation • A 1.0 mg sample of test compound was dissolved in 1 mL of DMSO/water (3:1) and the resulting mixture was stirred at rt overnight.
Recording Stability • A 50 μL aliquot of the test solution was removed and analysed in duplicate by 5 μL HPLC injections. The peak area for the test compound (taken to be 100% product, 0% degradation) was recorded following manual integration of the corresponding UV trace. The area retention time was also recorded. • The test solution was heated to 60° C. internal temperature (65° C. block temperature), with stirring, and timing commenced once the target temperature had been reached. After 5 and 24 h, samples were removed and analysed by HPLC (5 μL injections). In all cases, 5 μL injections were used and the samples analysed in duplicate. • The peak areas for the test compounds were recorded at both subsequent timepoints and the % decomposition calculated from the % change in peak area over time.

T3 sequence (Q16539 whole entry): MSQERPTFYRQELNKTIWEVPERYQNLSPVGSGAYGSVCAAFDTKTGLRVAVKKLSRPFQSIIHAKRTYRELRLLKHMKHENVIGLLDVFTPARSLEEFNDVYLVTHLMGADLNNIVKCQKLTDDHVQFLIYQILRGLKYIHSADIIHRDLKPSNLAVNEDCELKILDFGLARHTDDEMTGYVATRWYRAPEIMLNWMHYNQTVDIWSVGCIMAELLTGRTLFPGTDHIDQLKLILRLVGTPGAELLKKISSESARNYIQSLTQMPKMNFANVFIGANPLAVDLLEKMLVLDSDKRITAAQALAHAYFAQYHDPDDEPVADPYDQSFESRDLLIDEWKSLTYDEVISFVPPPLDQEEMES
T1 sequence (P49840 whole entry): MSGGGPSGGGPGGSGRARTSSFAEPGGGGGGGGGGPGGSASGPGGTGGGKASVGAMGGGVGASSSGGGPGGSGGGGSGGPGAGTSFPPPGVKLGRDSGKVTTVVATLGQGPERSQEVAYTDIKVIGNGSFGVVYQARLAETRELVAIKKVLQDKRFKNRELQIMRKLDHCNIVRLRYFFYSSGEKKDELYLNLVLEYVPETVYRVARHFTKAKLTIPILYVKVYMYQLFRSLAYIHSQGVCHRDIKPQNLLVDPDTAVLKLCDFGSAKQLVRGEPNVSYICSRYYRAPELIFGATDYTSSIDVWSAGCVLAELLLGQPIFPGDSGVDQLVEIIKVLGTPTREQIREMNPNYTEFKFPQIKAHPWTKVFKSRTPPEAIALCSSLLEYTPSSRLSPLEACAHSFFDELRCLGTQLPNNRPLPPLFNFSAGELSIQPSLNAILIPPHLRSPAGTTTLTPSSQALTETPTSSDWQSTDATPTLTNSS
T4 sequence (P12931 whole entry): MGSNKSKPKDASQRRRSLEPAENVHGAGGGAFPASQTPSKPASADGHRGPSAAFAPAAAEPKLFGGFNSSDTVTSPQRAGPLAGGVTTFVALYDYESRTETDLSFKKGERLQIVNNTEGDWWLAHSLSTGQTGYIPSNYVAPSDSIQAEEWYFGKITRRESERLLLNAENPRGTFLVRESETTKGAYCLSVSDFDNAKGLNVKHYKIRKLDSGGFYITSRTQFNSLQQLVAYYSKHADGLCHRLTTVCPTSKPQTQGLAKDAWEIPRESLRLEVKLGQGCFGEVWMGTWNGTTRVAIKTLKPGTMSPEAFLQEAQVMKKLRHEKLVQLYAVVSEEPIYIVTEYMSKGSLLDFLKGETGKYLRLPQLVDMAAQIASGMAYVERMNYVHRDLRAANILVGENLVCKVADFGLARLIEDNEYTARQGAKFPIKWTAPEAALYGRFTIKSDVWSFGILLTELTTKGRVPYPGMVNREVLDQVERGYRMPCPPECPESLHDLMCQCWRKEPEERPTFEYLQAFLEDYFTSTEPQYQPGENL

Compound	pIC50 [1]	pIC50 [2]	pIC50 [4]	pIC50 [5]	pIC50 [3]	pIC50 [7]	% Viability at 1 μg/mL [8]	% Viability at 5 μg/mL [8]	% Viability at 20 μg/mL [8]	further results
COCCOCCOCCOc1cc(Nc2ncc3cc(-c4cc(C(=O)Nc5cccc(C(F)(F)F)c5)ccc4C)ccc3n2)cc(OC)c1 [Example 1, 3-(2-((3-Methoxy-5-(2-(2-(2-methoxyethoxy)ethoxy)ethoxy)phenyl)amino)quinazolin-6-yl)-4-methyl-N-(3-(trifluoromethyl)phenyl)benzamide]	< 4.84	< 5.84	6.11	7.85	6.87	–	–	–	–	–
COc1cc(Nc2ncc3cc(-c4cc(C(=O)Nc5cc(C(C)(C)C)cc(NS(C)(=O)=O)c5OC)ccc4C)ccc3n2)ccc1C(=O)O [Example 8, 4-((6-(5-((5-(tert-Butyl)-2-methoxy-3-(methylsulfonamido)phenyl)carbamoyl)-2-methylphenyl)quinazolin-2-yl)amino)-2-methoxybenzoic acid]	–	–	–	–	8.40	–	91.1%	65.8%	30.6%	–
COc1cc(Nc2ncc3cc(-c4cc(C(=O)Nc5cc(C(C)(C)C)cc(NS(C)(=O)=O)c5OC)ccc4C)ccc3n2)ccc1C(=O)N(C)CCN1CCOCC1 [Example 9, 4-((6-(5-((5-(tert-Butyl)-2-methoxy-3-(methylsulfonamido)phenyl)carbamoyl)-2-methylphenyl)quinazolin-2-yl)amino)-2-methoxy-N-methyl-N-(2-morpholinoethyl)benzamide]	–	–	–	–	8.51	–	63.0%	38.4%	28.7%	–
COc1c(NC(=O)c2ccc(C)c(-c3ccc4nc(Nc5cc(OS(C)(=O)=O)cc(C(=O)NCCN6CCOCC6)c5)ncc4c3)c2)cc(C(C)(C)C)cc1NS(C)(=O)=O [Example 10, 3-((6-(5-((5-(tert-Butyl)-2-methoxy-3-(methylsulfonamido)phenyl)carbamoyl)-2-methylphenyl)-quinazolin-2-yl)amino)-5-((2-morpholinoethyl)carbamoyl)phenyl methanesulfonate]	–	< 5.93	7.62	7.70	8.46	7.88	91.5%	82.5%	77.8%	–
COc1cc(Nc2ncc3cc(-c4cc(C(=O)Nc5cc(C(C)(C)C)cc(NS(C)(=O)=O)c5OC)ccc4C)ccc3n2)ccc1C(=O)N1CCS(=O)(=O)CC1 [Example 12, N-(5-(tert-Butyl)-2-methoxy-3-(methylsulfonamido)phenyl)-3-(2-((4-(1,1-dioxidothiomorpholine-4-carbonyl)-3-methoxyphenyl)amino)quinazolin-6-yl)-4-methylbenzamide]	–	6.72	8.10	8.40	8.64	7.90	86.4%	79.3%	81.0%	–
C#Cc1cc(Nc2nccc(Oc3ccc(NC(=O)Nc4cc(C(C)C)nn4-c4ccc(C)cc4)c4ccccc34)n2)cc(C(=O)NCCN2CCOCC2)c1 [Reference Compound B, 3-ethynyl-5-((4-((4-(3-(3-isopropyl-1-(p-tolyl)-1H-pyrazol-5-yl)ureido)naphthalen-1-yl)oxy)pyrimidin-2-yl)amino)-N-(2-morpholinoethyl)benzamide]	–	–	–	–	–	–	–	–	–	% Parent Remaining, cumulative average from multiple experiments ([9]; 60° C., 300 min): 71.0%; % Parent Remaining ([9]; 60° C., 300 min): 93.3%; % Parent Remaining, cumulative average from multiple experiments ([9]; 60° C., 1440 min): 26.0%; % Parent Remaining ([9]; 60° C., 1440 min): 52.3%; % Parent Remaining, cumulative average from multiple experiments ([9]; time 0 min): 100^a (100^b) %; % Parent Remaining ([9]; time 0 min): 100^a (100^b) %; decomposition under the conditions of the hydrolytic stability experiment, in words ([9]; 60° C.): underwent substantial decomposition

Further lines, with some results ahead:

pIC50 [1]	pIC50 [2]	pIC50 [4]	pIC50 [5]	Compound	pIC50 [3]	pIC50 [7]	% Viability at 1 μg/mL [8]	% Viability at 5 μg/mL [8]	% Viability at 20 μg/mL [8]	further results
< 4.89	–	–	–	COc1cc(Nc2ncc3cc(-c4cc(C(=O)Nc5cc(C(C)(C)C)cc(P(C)(C)=O)c5OC)ccc4C)ccc3n2)cc(C(=O)NCCN2CCOCC2)c1 [Example 4, N-(5-(tert-Butyl)-3-(dimethylphosphoryl)-2-methoxyphenyl)-3-(2-((3-methoxy-5-((2-morpholinoethyl)carbamoyl)phenyl)amino)quinazolin-6-yl)-4-methylbenzamide]	7.83	–	–	–	–	–
< 4.90	–	–	–	COc1cc(Nc2ncc3cc(-c4cc(C(=O)Nc5cc(C(C)(C)C)cc(NS(C)(=O)=O)c5OC)ccc4C)ccc3n2)cc(C(=O)NCCN2CCOCC2)c1 [Example 5, N-(5-(tert-butyl)-2-methoxy-3-(methylsulfonamido)phenyl)-3-(2-((3-methoxy-5-((2-morpholinoethyl)carbamoyl)phenyl)amino)quinazolin-6-yl)-4-methylbenzamide]	7.99	7.52	116.5%	48.8%	44.6%	pIC50 [6]: 7.41
